Data set [1] is described as follows: Metabolic stability in human liver microsomes assessed as parent compound remaining at 0.5 uM incubated for 10 mins in presence of NADPH by LC-MS/MS analysis. The format is ADME, Microsome. Conditions: read-out: Stability. On the technique in general: Liver microsomes are a subcellular fraction often used to study metabolism.
In data set [2] the target is AP2-associated protein kinase 1 (Homo sapiens, UniProt Q2M2I8). The data set can be described thus: Inhibition of recombinant GST-Xa-tagged human AAK1 (30 to 330 residues) using 5-FAM-labelled Alla-KEEQSQITSQVTGQIGWR-NH2 peptide as substrate incubated for 3 hrs in presence of ATP by electrophoretic analysis.
AP2-associated protein kinase 1, sequence (Q2M2I8 whole entry, the tested form may be a part): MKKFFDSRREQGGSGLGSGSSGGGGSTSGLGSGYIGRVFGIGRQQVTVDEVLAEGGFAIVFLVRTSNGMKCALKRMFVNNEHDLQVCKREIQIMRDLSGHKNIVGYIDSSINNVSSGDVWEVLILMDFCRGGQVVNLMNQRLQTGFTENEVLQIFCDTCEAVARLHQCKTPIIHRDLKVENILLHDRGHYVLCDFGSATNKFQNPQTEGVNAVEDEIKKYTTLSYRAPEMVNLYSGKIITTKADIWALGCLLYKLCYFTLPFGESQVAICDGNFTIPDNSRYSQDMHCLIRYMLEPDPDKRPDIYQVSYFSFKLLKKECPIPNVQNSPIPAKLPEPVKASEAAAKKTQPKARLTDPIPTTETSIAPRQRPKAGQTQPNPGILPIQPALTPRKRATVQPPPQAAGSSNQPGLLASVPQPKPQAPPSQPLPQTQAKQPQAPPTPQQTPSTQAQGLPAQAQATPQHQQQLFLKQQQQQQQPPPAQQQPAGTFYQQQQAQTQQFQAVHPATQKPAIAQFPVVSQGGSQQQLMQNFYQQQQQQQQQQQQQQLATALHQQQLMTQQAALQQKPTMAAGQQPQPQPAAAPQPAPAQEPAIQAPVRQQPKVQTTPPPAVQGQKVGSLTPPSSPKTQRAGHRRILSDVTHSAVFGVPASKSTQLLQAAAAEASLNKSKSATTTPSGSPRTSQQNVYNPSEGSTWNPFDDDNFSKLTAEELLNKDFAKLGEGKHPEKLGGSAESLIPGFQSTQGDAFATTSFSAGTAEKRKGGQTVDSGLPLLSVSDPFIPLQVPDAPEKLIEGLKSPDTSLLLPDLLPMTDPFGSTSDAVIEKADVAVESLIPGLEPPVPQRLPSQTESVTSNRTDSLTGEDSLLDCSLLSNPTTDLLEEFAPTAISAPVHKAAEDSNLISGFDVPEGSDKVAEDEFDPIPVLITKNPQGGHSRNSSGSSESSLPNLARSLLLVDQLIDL
Data set [3] is described as follows: Metabolic stability in rat liver microsomes assessed as parent compound remaining at 0.5 uM incubated for 10 mins in presence of NADPH by LC-MS/MS analysis. In kind it is ADME, Microsome. Conditions: read-out: Stability.
Data set [4] can be described thus: Metabolic stability in mouse liver microsomes assessed as parent compound remaining at 0.5 uM incubated for 10 mins in presence of NADPH by LC-MS/MS analysis. In kind it is ADME, Microsome. Conditions: read-out: Stability.

pIC50: −log10 of the molar value.

Broadly, the pIC50 is −log10 of the IC50, conventionally taken in molar units. Consider `COc1cc(NC(=O)[C@@H](N)CC(C)C)ccc1-c1cnco1`, for which the figures for the remaining at 10 min, 0.5 µM in data set [1], in data set [3] and in data set [4] were 71%, 40% and 53%, respectively. In data set [2], the pIC50 was 7.72.
Taken in the same sequence, the figures for `COc1cc(NC(=O)[C@H](N)C2CCCCC2)ccc1-c1cnco1` were 69%, 66%, 67% and 7.74.
Consider `COc1cc(N(C)C(=O)[C@H](N)CC(C)C)ccc1-c1cnco1`, for which the pIC50 in data set [2] is 4.89.
On to `COc1cc(NC(=O)[C@H](N)CC(C)C)ccc1-c1ccnnc1`, for which the remaining at 10 min, 0.5 µM in data set [1] was 99%; in data set [3], 74%; in data set [4], 70%. Besides, the pIC50 in data set [2] is 6.96.
Taken in the same sequence, the figures for `COc1cc(NC(=O)[C@H](N)CC2CC2)ccc1-c1cnco1` were 100%, 74%, 79% and 7.35.
Regarding `CCOc1cc(NC(=O)[C@H](N)CC(C)C)ccc1-c1cnco1`, the remaining at 10 min, 0.5 µM in data set [1] came to 64%; in data set [3], 60%; in data set [4], 54%. For the same molecule, in data set [2], the pIC50 is 7.89.
For the molecule `COc1cc(NC(=O)[C@H](N)CC(C)C)ccc1-c1cnn(C)c1`, in data set [2], the pIC50 is 5.41.
`COc1cc(NC(=O)[C@H](N)CC(C)C)ccc1-c1ccncc1`: the remaining at 10 min, 0.5 µM in data set [1] was 91%; in data set [3] it was 77%; in data set [4] it was 65%. The negative logarithm of the IC50 (pIC50) in data set [2] was 7.07.
On to `COc1cc(NC(=O)CCC(C)C)ccc1-c1cnco1`, for which the remaining at 10 min, 0.5 µM in data set [1] amounted to 61%; in data set [3] it was 46%; in data set [4] it was 33%. Further, the pIC50 in data set [2] was 7.10.
Take `COc1cc(NC(=O)[C@H](N)CC(C)(C)C)ccc1-c1cnco1`: the pIC50 in data set [2] is 7.07. Besides, the remaining at 10 min, 0.5 µM came to 76% in data set [3] and 65% in data set [4].
For `CC(C)C[C@@H](N)C(=O)Nc1ccc(-c2cnco2)c(C#N)c1`, the remaining at 10 min, 0.5 µM is 64% in data set [1], 50% in data set [3] and 57% in data set [4]. For the same molecule, the pIC50 in data set [2] was 7.14.
Take `CC(C)C[C@@H](N)C(=O)Nc1ccc(-c2cnco2)c(OC(F)(F)F)c1`: the remaining at 10 min, 0.5 µM came out at 69% in data set [1], 79% in data set [3] and 53% in data set [4].
With `CCC[C@H](N)C(=O)Nc1ccc(-c2cnco2)c(OC)c1`, the remaining at 10 min, 0.5 µM in data set [1] is 70%; in data set [3], 31%; in data set [4], 46%. Also, the pIC50 in data set [2] was 6.46.
As for `CC(C)C1CCCNC1C(=O)Nc1ccc(-c2ccncc2)cc1` (racemic), the remaining at 10 min, 0.5 µM in data set [1] is 77%; in data set [3], 60%; in data set [4], 76%. In addition, the pIC50 in data set [2] is 7.77.
As for `COc1cc(NC(=O)[C@H](N)CC(C)C)ccc1-c1ccnc(N)c1`, the figures for the remaining at 10 min, 0.5 µM in data set [1], in data set [3] and in data set [4] were 96%, 89% and 73%, respectively. The pIC50 in data set [2] is 6.82.
Take `COc1cc(NC(=O)[C@H](N)CC(C)C)ccc1-c1cccnc1`: in data set [2], the pIC50 is 4.99.
With `COc1cc(NC(=O)C(CN)CC(C)C)ccc1-c1cnco1` (stereo not drawn), the remaining at 10 min, 0.5 µM worked out at 97% in data set [1], 63% in data set [3] and 78% in data set [4].
With `COc1cc(NC(=O)[C@H](N)CC(C)C)ccc1-c1cncnc1`, the pIC50 in data set [2] is 5.24.
For `COc1cc(NC(=O)[C@H](N)C(C)C)ccc1-c1cnco1`, the results for the remaining at 10 min, 0.5 µM in data set [1], in data set [3] and in data set [4] were 84%, 42% and 40%, respectively.
On the same counts, the results for `COc1cc(NC(=O)[C@H](N)CC(C)C)ccc1-n1ccnc1` are 92%, 86% and 87%.

For the origin of these results see ChEMBL document CHEMBL4828715, “Discovery, Structure-Activity Relationships, and In Vivo Evaluation of Novel Aryl Amides as Brain Penetrant Adaptor Protein 2-Associated Kinase 1 (AAK1) Inhibitors for the Treatment of Neuropathic Pain” (J Med Chem, 2021).
